Results from ChEMBL document CHEMBL1201862, “PubChem BioAssay data set” (2004).
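Dose response: 5 concentrations. Exposure: 48 h. Format: 96-well plates. Endpoint: linear interpolation; highest concentration if not reached. The concentration for 50% growth inhibition is given as GI50.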 Calls of active or inactive are those of the source. No stated cut-off is given here; in the data, active = GI50 up to about 1.1 µM and inactive = higher.

Experiments:
Assay in all cases: DTP human tumour cell line panel, 48 h
OVCAR-3 = test system: OVCAR-3
NCI-H460 = test system: NCI-H460
SF-539 = test system: SF-539
OVCAR-8 = test system: OVCAR-8
MDA-MB-231 = test system: MDA-MB-231
SF-295 = test system: SF-295
OVCAR-5 = test system: OVCAR-5
NCI-H23 = test system: NCI-H23
HCC 2998 = test system: HCC 2998
A498 = test system: A498
HCT-15 = test system: HCT-15
BT-549 = test system: BT-549
SNB-75 = test system: SNB-75
UACC-257 = test system: UACC-257
HL-60 = test system: HL-60
ACHN = test system: ACHN
K562 = test system: K562
SK-MEL-2 = test system: SK-MEL-2
RPMI-8226 = test system: RPMI-8226
SR = test system: SR

Row | Structure (SMILES) | GI50 (OVCAR-3) | GI50 (NCI-H460) | GI50 (SF-539) | GI50 (OVCAR-8) | GI50 (MDA-MB-231) | GI50 (SF-295) | GI50 (OVCAR-5) | GI50 (NCI-H23) | GI50 (HCC 2998) | GI50 (A498) | GI50 (HCT-15) [µM] | GI50 (BT-549) | GI50 (SNB-75) | GI50 (UACC-257) | GI50 (HL-60) | GI50 (ACHN) | GI50 (K562) | GI50 (SK-MEL-2) | GI50 (RPMI-8226) | GI50 (SR)
1 | Cc1cc2c(cc1Cl)Sc1nnc(C)n1S2(=O)=O | 12.6 µM (inactive) | 23.7 µM (inactive) | 17.9 µM (inactive) | 17.5 µM (inactive) | 11.7 µM (inactive) | 15.7 µM (inactive) | 29.2 µM (inactive) | 12.9 µM (inactive) | 17.7 µM (inactive) | 14.8 µM (inactive) | 11.2 | 14.1 µM (inactive) | 13.3 µM (inactive) | 13.9 µM (inactive) | 6.78 µM (inactive) | 11.9 µM (inactive) | 13.8 µM (inactive) | – | – | –
2 | c1ccc2c(c1)ccc1nc(-c3ccc4c(c3)OCO4)c3c(c12)CCC3 | > 100 µM (inactive) | 45.3 µM (inactive) | > 100 µM (inactive) | 56.4 µM (inactive) | 67.5 µM (inactive) | 77.4 µM (inactive) | > 100 µM (inactive) | 60.3 µM (inactive) | 79.4 µM (inactive) | > 100 µM (inactive) | 83.2 | > 100 µM (inactive) | > 100 µM (inactive) | > 100 µM (inactive) | – | > 100 µM (inactive) | 20.5 µM (inactive) | > 100 µM (inactive) | 37.1 µM (inactive) | –
3 | Cn1/c(=N\S(=O)(=O)c2ccccc2)n(S(=O)(=O)c2ccccc2)c2ccccc21 | 36.2 µM (inactive) | – | – | 56.1 µM (inactive) | > 100 µM (inactive) | 62.1 µM (inactive) | > 100 µM (inactive) | 61 µM (inactive) | – | 78.7 µM (inactive) | > 100 | > 100 µM (inactive) | 54.7 µM (inactive) | > 100 µM (inactive) | 0.598 µM (active) | 34.5 µM (inactive) | 39.9 µM (inactive) | 34.4 µM (inactive) | 48.1 µM (inactive) | –
4 | O=C(C[C@@H]1CCCN2CCCC[C@H]12)N1c2ccccc2Sc2ccc(Cl)cc21 | 16.2 µM (inactive) | 14.7 µM (inactive) | 16.6 µM (inactive) | 19.3 µM (inactive) | 14.7 µM (inactive) | 19.5 µM (inactive) | 13.4 µM (inactive) | 14.7 µM (inactive) | – | – | 15.7 | 14.7 µM (inactive) | 13.8 µM (inactive) | 11.6 µM (inactive) | 14.5 µM (inactive) | 14.2 µM (inactive) | 13.8 µM (inactive) | – | 20.2 µM (inactive) | 19.3 µM (inactive)
5 | CC1(C)CC(=O)C(=CNC(N)=S)C(=O)C1 | > 100 µM (inactive) | > 100 µM (inactive) | > 100 µM (inactive) | > 100 µM (inactive) | > 100 µM (inactive) | > 100 µM (inactive) | > 100 µM (inactive) | > 100 µM (inactive) | > 100 µM (inactive) | – | > 100 | > 100 µM (inactive) | > 100 µM (inactive) | > 100 µM (inactive) | > 100 µM (inactive) | > 100 µM (inactive) | – | > 100 µM (inactive) | – | –
6 | CC(C)[C@H](NC(=O)[C@H](N)Cc1ccc(N(CCCl)CCCl)cc1)C(=O)O | > 100 µM (inactive) | > 100 µM (inactive) | – | > 100 µM (inactive) | > 100 µM (inactive) | > 100 µM (inactive) | > 100 µM (inactive) | > 100 µM (inactive) | > 100 µM (inactive) | > 100 µM (inactive) | > 100 | > 100 µM (inactive) | > 100 µM (inactive) | > 100 µM (inactive) | > 100 µM (inactive) | > 100 µM (inactive) | > 100 µM (inactive) | > 100 µM (inactive) | > 100 µM (inactive) | –
7 | O=C(NN1C(=O)CSC1c1ccco1)c1ccncc1 (configuration not stated) | > 100 µM (inactive) | > 100 µM (inactive) | > 100 µM (inactive) | > 100 µM (inactive) | > 100 µM (inactive) | > 100 µM (inactive) | > 100 µM (inactive) | > 100 µM (inactive) | > 100 µM (inactive) | > 100 µM (inactive) | > 100 | > 100 µM (inactive) | – | > 100 µM (inactive) | > 100 µM (inactive) | > 100 µM (inactive) | > 100 µM (inactive) | > 100 µM (inactive) | > 100 µM (inactive) | –
8 | C[C@]12c3c4cc(NC(=O)C(=O)NCc5ccc(-c6ccccn6)nc5)cc3Oc3cc(NC(=O)C(=O)NCc5ccc(-c6ccccn6)nc5)cc(c31)OC1C=C(NC(=O)C(=O)NCc3ccc(-c5ccccn5)nc3)C=C(O4)C12 (some centres not stated) | 35.6 µM (inactive) | 17.1 µM (inactive) | 29.3 µM (inactive) | 21.9 µM (inactive) | 9.59 µM (inactive) | 25.4 µM (inactive) | > 100 µM (inactive) | – | – | – | 27.8 | > 100 µM (inactive) | 16.4 µM (inactive) | 52.2 µM (inactive) | 14.6 µM (inactive) | 14.3 µM (inactive) | 84.9 µM (inactive) | 38.7 µM (inactive) | 42.1 µM (inactive) | 3.83 µM (inactive)
